ChEMBL document CHEMBL1201862, “PubChem BioAssay data set” (2004)
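Protocol summary: plate cells (96-well), add compound at 5 concentrations, incubate 48 h, interpolate endpoints linearly. At the GI50, growth is halved.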 Activity calls are given as the source filed them. Rule as the data show it: active = GI50 up to about 1.1 µM and inactive = higher.

Assays:
Test in all cases: inhibition of tumour cell growth, NCI panel, 48 h
KM-20L2 = tested on: KM-20L2
M19-MEL = tested on: M19-MEL
HOP-18 = tested on: HOP-18
DMS-273 = tested on: DMS-273
SNB-78 = tested on: SNB-78
DMS-114 = tested on: DMS-114
XF498 = tested on: XF498
LXFL 529 = tested on: LXFL 529
RXF 631 = tested on: RXF 631

Compound	GI50 (KM-20L2)	GI50 (M19-MEL)	GI50 (HOP-18)	GI50 (DMS-273)	GI50 (SNB-78)	GI50 (DMS-114)	GI50 (XF498)	GI50 (LXFL 529)	GI50 (RXF 631)
N#CC(C#N)=Cc1cccc(Oc2ccccc2)c1	37.4 µM (inactive)	27.5 µM (inactive)	16.7 µM (inactive)	19 µM (inactive)	29.2 µM (inactive)	26.2 µM (inactive)	20.2 µM (inactive)	18.5 µM (inactive)	
O=C1NC2(CCCCC2)C2=C1CCCCC2		> 100 µM (inactive)	> 100 µM (inactive)	> 100 µM (inactive)	> 100 µM (inactive)	> 100 µM (inactive)	> 100 µM (inactive)	> 100 µM (inactive)	
O=C(NC1CCC[C@H]1OC(=O)c1ccccc1)c1ccccc1 (stereo partly drawn)	> 10 µM (inactive)	> 100 µM (inactive)		95.7 µM (inactive)	> 100 µM (inactive)	> 10 µM (inactive)	35.3 µM (inactive)		66.8 µM (inactive)
Oc1cccnc1/C=N/OCc1ccccc1	> 100 µM (inactive)	> 100 µM (inactive)		> 100 µM (inactive)	> 100 µM (inactive)	> 100 µM (inactive)	29 µM (inactive)	> 100 µM (inactive)	
CC(=O)OCC(OC(C)=O)C(OC(C)=O)C(OC(C)=O)C(=O)CNn1c(-c2ccccc2Cl)nc2ccc(Br)cc2c1=O (stereo not drawn)	> 100 µM (inactive)	> 100 µM (inactive)		56.5 µM (inactive)	65.6 µM (inactive)	30.4 µM (inactive)	15.5 µM (inactive)	36.9 µM (inactive)	
CCC1(CN(C)C)CC/C(=C\c2ccc(OC)c(OC)c2)C1=O (stereo not drawn)	51.9 µM (inactive)	> 100 µM (inactive)	> 100 µM (inactive)	> 100 µM (inactive)	> 100 µM (inactive)	99.8 µM (inactive)	> 100 µM (inactive)	> 92 µM (inactive)	> 100 µM (inactive)
COC1=CC(=O)C2C(C1=O)[C@@H]1c3ccccc3OC[C@H]21 (stereo partly drawn)	> 100 µM (inactive)		> 100 µM (inactive)	> 100 µM (inactive)	> 100 µM (inactive)	> 100 µM (inactive)		> 100 µM (inactive)	
O=C(CNc1nncs1)NO	> 100 µM (inactive)	> 100 µM (inactive)	> 100 µM (inactive)	> 100 µM (inactive)	> 100 µM (inactive)	54.3 µM (inactive)		> 100 µM (inactive)	
COc1ccc2c(c1)[n+]([O-])c(-c1ccc([N+](=O)[O-])cc1)c(N)[n+]2[O-]	49.5 µM (inactive)		> 100 µM (inactive)	> 100 µM (inactive)	96.4 µM (inactive)	21.4 µM (inactive)		39.5 µM (inactive)	> 100 µM (inactive)
C/C(=N\N=C(/S)N1CC2CCC(CC2)C1)c1cccc[n+]1[O-]	1.52 µM (inactive)	3.58 µM (inactive)	30.3 µM (inactive)	2.62 µM (inactive)	8.34 µM (inactive)	1.35 µM (inactive)	21.4 µM (inactive)		3.45 µM (inactive)
Cc1c(C(=O)Nc2ccc(Cl)cc2)nc(N)nc1-c1cccc(Cl)c1	45.4 µM (inactive)	> 100 µM (inactive)	> 100 µM (inactive)	> 100 µM (inactive)	> 100 µM (inactive)	94.4 µM (inactive)		> 10 µM (inactive)	52.1 µM (inactive)
CC(C)NC(=O)O/N=C1\CCC2[C@@H]3CC=C4C[C@@H](OC(=O)NC(C)C)CC[C@]4(C)C3CC[C@]12C (stereo partly drawn)	2.59 µM (inactive)	1.29 µM (inactive)	1.84 µM (inactive)	1.31 µM (inactive)	2.29 µM (inactive)	0.664 µM (active)		0.912 µM (active)	1.32 µM (inactive)
Nc1c(Cl)ncnc1NCCCCCCCCCCCCNc1ncnc(Cl)c1N	7.11 µM (inactive)	2.59 µM (inactive)	5.48 µM (inactive)	1.74 µM (inactive)	0.137 µM (active)	< 0.01 µM (active)	0.593 µM (active)	0.218 µM (active)	1.94 µM (inactive)
COC[C@@H](/N=C/N1CCc2cc(OC)c(OC)cc2[C@@H]1C)C(C)(C)C	> 100 µM (inactive)	> 100 µM (inactive)	> 100 µM (inactive)			> 100 µM (inactive)	> 100 µM (inactive)	> 100 µM (inactive)	> 100 µM (inactive)
Cc1ccc(S(=O)(=O)NC2CCCCO2)cc1 (stereo not drawn)	> 100 µM (inactive)	> 100 µM (inactive)	> 100 µM (inactive)	> 100 µM (inactive)	> 100 µM (inactive)	> 100 µM (inactive)	> 100 µM (inactive)	> 100 µM (inactive)	
